Reference: ChEMBL document CHEMBL1158216, “Globostellatic acids A-D, new cytotoxic isomalabaricane triterpenes from the marine sponge Stelletta globostellata” (J Nat Prod, 1996)

Each molecule was assayed on P388 (assay: Cytotoxicity against mouse P388 cells).
Assay type: functional, cell-based

Structure (SMILES) | IC50 [µg/mL]
COC(/C=C/C(C)(C)O)/C(C)=C/C=C/C(C)=C1\C(=O)C[C@H]2[C@@]3(C)CC[C@@H](OC(C)=O)[C@](C)(C(=O)[O-])[C@@H]3CC[C@]12C.[Na+] (some centres undefined) [GLOBOSTELLATIC ACID B] | 0.1
COC(/C=C/C(C)=C/C=C/C(C)=C1\C(=O)C[C@H]2[C@@]3(C)CC[C@@H](OC(C)=O)[C@](C)(C(=O)[O-])[C@@H]3CC[C@]12C)C(C)(C)O.[Na+] (some centres undefined) [GLOBOSTELLATIC ACID C] | 0.46
CC(=O)O[C@@H]1CC[C@@]2(C)[C@@H](CC[C@]3(C)/C(=C(\C)C(=O)/C=C/C(C)=C/C=C/C(C)(C)O)C(=O)C[C@@H]23)[C@@]1(C)C(=O)[O-].[Na+] [GLOBOSTELLATIC ACID A] | 0.1
COC(/C=C/C(C)=C/C=C/C(C)=C1\C(=O)C[C@H]2[C@@]3(C)CC[C@@H](O)[C@](C)(C(=O)[O-])[C@@H]3CC[C@]12C)C(C)(C)O.[Na+] (some centres undefined) [GLOBOSTELLATIC ACID D] | 0.1
